Laboratory results reported in patent US20110091931A1, “Methods and Kits for Determining Oxygen Free Radical (OFR) Levels in Animal and Human Tissues as a Prognostic Marker for Cancer and Other Pathophysiologies” (COLBY PHARMACEUTICAL COMPANY, priority 2009, published 2011).
Entries after “also recorded” stand apart in the source; their conditions may differ.

Key:
LNCaP cells [1] = test: HPLC quantitation of polyamine and acetyl polyamine levels in LNCaP cells; type: cell-based, human
Description: This method is routinely used in the analytical laboratory of the core facility of Cancer Centers and was accessible for quantitative assays necessary for the PK/PD determinations. […] Each data point was an average of two determinations where sample cell pellets were collected from three independent experiments.

LNCaP cells [2] = test: DCF dye oxidation assay of androgen (R1881) induced ROS production; type: cell-based, human
Method: SSAT induction is a major source of androgen induced oxidative stress. In order to confirm that SSAT was the major source of androgen induced oxidative stress, we developed and used a stable LNCaP cell clone transfected with plasmid transcribing siRNA designed to silence SSAT mRNA expression. The SSAT mRNA level in these cells was determined by qRT-PCR method. In the cells transfected only with the vector, the SSAT mRNA level increased by over 8-fold after 96 h treatment with R1881, whereas in cells stably transfected with SSAT siRNA (si22), R1881 under similar treatment condition induced less than 2-fold increase in the SSAT transcript, showing over 75% silencing of SSAT mRNA expression. The ROS production induced by androgen analog R1881 in these cells was measured by DCF dye oxidation assay. The green fluorescence of oxidized DCF in androgen treated LNCaP cells was shown. The effect of SSAT silencing on the R1881 induced ROS production measured by DCF assay was also shown. The ratio of DCF fluorescence (green):DNA fluorescence (blue) for each of the treated well of a 96 well plate normalized to that of the average of control untreated wells represents the ROS level per cell relative to that in control untreated cells. The data points are the mean of numbers obtained from repeat experiments using thirty identically treated wells.
Each data point was an average of readings from six wells repeated twice in triplicates. […] The ROS levels of all CPC-200 pretreated cells were normalized to the ROS levels of cells treated with CPC-200 alone.

[3] = test system: prostate tissue in TRAMPxFVB animals; test: In vivo hydroethidine (HEt) dye oxidation in prostate tissue; set-up: species or system mouse
Description: In parallel to standardizing and validating quantitation of cellular fluorescence intensities with the Bioimager system, we also standardized conditions for fluorescence dye oxidation in animal tissues in vivo and in human tissue ex vivo using standard fluorescence microscopy. For these studies, another dye hydroethidine (HEt) was used. HEt in reduced form is colorless. It is oxidized by the ROS superoxide to ethidium (E^+). The intense fluorescence of E^+ion can be monitored at 488 excitation/595 emission frequencies at sub-nanomolar concentrations. […] After sacrifice, animals were exsanguinated to reduce fluorescence interference from blood hemoglobin. […] Unlike what observed in DCF dye oxidation assay in LNCaP cells where nuclei are more fluorescent than are the cytoplasms (FIG. 5B), the HEt dye fluorescence in the cytoplasm of the normal prostatic lumen is more than that in the nuclei. […] This is ascertained when the fluorescence intensities of HEt dye in the human tumor and normal tissue ROS are quantitated, as described herein.
We standardized the in vivo method of Hydroethidine (HEt) dye oxidation. […] Prostate tissues in paraffin blocks were sectioned on a microtome, thin sections were de-paraffinized and observed under a fluorescence microscope at 480 nm excitation and 600 nm emission wavelengths. […]

TRAMP tumors = test: Chemopreventive efficacy against TRAMP tumors (tumor development, survival, PET-CT); type: in vivo, mouse
Method: Mice are treated with the optimal dose regimen and A cohort of 10 mice from each treatment will be euthanized at 24 weeks of age, when primary tumors are evident in the control group and the tumors collected for pharmacology, necropsy and other toxicity and tumor burden analyses. […] The remaining 20 mice per condition were followed for survival. Body weights and tumor volumes were measured once weekly throughout the study. A cohort of 10 mice in this treatment group is also monitored over the course of drug treatment by PET-CT scan for tumor growth and metastases. Each mouse is injected with ^124I labeled NM-404 per standard protocol and imaged on the microPET-microCT scanner.

[4] = Observed adverse side effects of CPC-200 treatment in vivo
androgen receptor = target: T1, androgen receptor (Homo sapiens, UniProt P10275, T878A); settings: human LNCaP prostate cancer cells; cited from earlier work
T1 construct: androgen receptor in human LNCaP prostate cancer cells in laboratory studies; host or cells: LNCaP
T1 sequence (P10275 1-920 T878A): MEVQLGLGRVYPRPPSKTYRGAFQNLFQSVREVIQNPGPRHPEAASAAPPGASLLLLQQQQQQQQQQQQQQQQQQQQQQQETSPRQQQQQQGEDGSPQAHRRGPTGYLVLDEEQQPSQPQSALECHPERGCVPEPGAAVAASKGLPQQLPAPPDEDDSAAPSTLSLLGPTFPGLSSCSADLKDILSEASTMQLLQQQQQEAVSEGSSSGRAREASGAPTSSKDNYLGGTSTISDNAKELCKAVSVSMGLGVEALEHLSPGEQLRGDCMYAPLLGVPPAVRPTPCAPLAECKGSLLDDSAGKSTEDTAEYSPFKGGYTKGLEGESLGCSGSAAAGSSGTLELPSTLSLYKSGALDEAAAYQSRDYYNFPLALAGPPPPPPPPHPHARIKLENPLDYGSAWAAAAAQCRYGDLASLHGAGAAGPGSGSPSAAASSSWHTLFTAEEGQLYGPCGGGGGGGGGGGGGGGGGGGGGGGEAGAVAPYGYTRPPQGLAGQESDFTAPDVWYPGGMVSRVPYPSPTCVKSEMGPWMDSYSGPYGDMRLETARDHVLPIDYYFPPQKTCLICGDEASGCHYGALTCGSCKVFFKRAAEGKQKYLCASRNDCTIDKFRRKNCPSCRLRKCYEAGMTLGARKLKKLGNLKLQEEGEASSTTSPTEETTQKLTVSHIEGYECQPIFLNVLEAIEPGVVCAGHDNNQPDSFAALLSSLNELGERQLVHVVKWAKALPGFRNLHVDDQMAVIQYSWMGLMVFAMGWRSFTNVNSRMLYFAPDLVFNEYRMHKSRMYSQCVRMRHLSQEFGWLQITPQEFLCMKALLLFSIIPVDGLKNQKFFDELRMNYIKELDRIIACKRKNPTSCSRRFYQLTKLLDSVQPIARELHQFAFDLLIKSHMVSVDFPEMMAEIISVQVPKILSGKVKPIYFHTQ

[5] = test system: cytochrome P450 (CYP) class of enzymes; settings: compared with I3C; cited from earlier work
prostate cancer cells = settings: cited from earlier work
[6] = in vivo, iv

With “N,N′-bis(butadienyl)-1,4-butanediamine [CPC-200]” the “R1881 induced increase in putrescine and spermidine” value (LNCaP cells [1]; 24 h CPC-200 pretreatment of R1881-treated cells) was “almost completely blocked”, the “effect on most cellular polyamine levels” value (LNCaP cells [1]; CPC-200 treatment alone) was “little or no significant effect” and the “R1881 (≧1 nM) induced ROS production” value (LNCaP cells [2]; LNCaP cells, 24 h pretreatment with 25 μM CPC-200, R1881 96 h) was “effectively blocked”. For the same compound, the “cellular ROS levels” value (LNCaP cells [2]; LNCaP cells, CPC-200 treatment alone (25 μM)) was “minor decrease”, the “androgen-induced oxidative stress in cultured androgen-dependent human prostate cancer cells” value (LNCaP cells [2]; summary statement) was “significantly reduces oxidative stress; also recorded: almost completely blocked” and the “oxidative stress in prostate tissue / pre-neoplastic lesions in vivo” value ([3]; TRAMP model, summary statement) was “significantly reduces oxidative stress; also recorded: unambiguous reduction in oxidative stress”. For the same compound, the “HEt reporter dye monitored oxidation in prostatic tissue” value ([3]; TRAMPxFVB mice, six administrations of 25 mg/kg CPC-200 i.p. once every two weeks, HEt 8 mg/kg i.v.) was “no significant HEt reporter dye monitored oxidation is detected”, the overall survival (TRAMP tumors; TRAMP mice) was “greatly increases; also recorded: markedly increased” and the “time to spontaneous prostate tumor development” value (TRAMP tumors; TRAMP model) was “markedly delays; also recorded: greatly delayed”. The “prostate tumor by PET-CT scan” value (TRAMP tumors; TRxF male mice, scans at age 8, 12, 18 and 24 weeks) was “no prostate tumor” and the adverse side effects [4] was “without any observable adverse side effects”.

For `c1ccc2c(Cc3c[nH]c4ccccc34)c[nH]c2c1` [DIM, 3,3′-Diindolylmethane], the androgen receptor activation (androgen receptor) is listed as “block androgen receptor activation”, the “binding of dihydrotestosterone (DHT) to the androgen receptor” value (androgen receptor) is listed as “decreased binding” and the “induction of cytochrome P450 (CYP) class of enzymes” value [5] is listed as “to a lesser extent than does I^3C”. The PSA (prostate cancer cells) was “downregulation of PSA” and the “proliferation of prostate cancer cells” value (prostate cancer cells; in vitro and in a mouse xenograft model) was “inhibition of proliferation”.

With `CCN1c2cc(N)ccc2-c2ccc(N)cc2C1c1ccccc1` (centres unmarked) [HEt, hydroethidine] the “safety of i.v. injection” value [6] was “can be safely injected i.v”.
